This note sets out measurements from patent publication US11000033B2, “Ketone or oxime compound, and herbicide” (NISSAN CHEMICAL CORPORATION, priority 2014, dated 2021).

Holding throughout (format): in vivo
In one data set the test system is wheat. In words: Test Example 5: effect on crop by foliage application, plastic box (symbol e). The following applies: 320 g/ha, 3 weeks after application. The method, boiled down:
(§1)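 Seeds were sown in spots in sterilized diluvial soil held in a plastic box 21 cm × 13 cm × 7 cm deep, covered with about 1.5 cm of soil, and grown in a greenhouse at 25° C. to 30° C.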

A further data set deals with Abutilon theophrasti. In words: Test Example 4: herbicidal effect by soil treatment (symbol M). Put shortly: (§2)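 Seeds were sown in sterilized diluvial soil, covered with about 1.5 cm of soil, and the soil surface was sprayed with a water-diluted emulsion of the compound at a predetermined rate. Plants grew in a greenhouse at 25° C. to 30° C.; effects were scored visually 3 weeks after application.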

The next data set has as its system Apera spica-venti. In words: Test Example 5: herbicidal effect by foliage application, plastic box (symbol L). The following applies: 320 g/ha, 3 weeks after application. The method, boiled down:
(§3)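 Leaf-applied emulsion, water-diluted to a preset herbicide dose, on two-week-old seedlings raised in a 25° C. to 30° C. greenhouse; injury rated at 3 weeks using earlier criteria.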

The test system of the next data set is beet. In words: Test Example 5: effect on crop by foliage application, plastic box (symbol f). The following applies: 320 g/ha, 3 weeks after application. The method, boiled down:
as §1

The test system of a further data set is rapeseed. In words: Test Example 4: effect on crop by soil treatment (symbol g). The method, boiled down:
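Plants grew in a 25° C. to 30° C. greenhouse after spot-sowing of seeds, including beet, rapeseed, wheat and rice, into sterilized diluvial soil under roughly 1.5 cm of cover soil.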

A further data set relates to corn. In words: Test Example 5: effect on crop by foliage application, plastic box (symbol c). The following applies: 320 g/ha, 3 weeks after application. Put shortly: as §1
For a further data set, the system named is transplanted rice plant. In words: Test Example 1: effect on crop, application before weed generation in submerged conditions (symbol a). The conditions noted are these: application herbicide amount 320 g/ha. The method, boiled down:
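Rice at 2.5 leaf stage transplanted into submerged soil (4 cm depth) sown with three weed species; herbicide applied before weed emergence.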

For the next data set, the system named is Monochoria vaginalis. In words: Test Example 1: herbicidal activity, application before weed generation in submerged conditions (symbol C). The conditions noted are these: application herbicide amount 320 g/ha. The method, boiled down:
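Pre-emergence, paddy conditions: emulsifiable formulation diluted in water, dosed onto floodwater (4 cm depth) on sowing day. Alluvial soil; weeds sown mixed; rice transplanted at 2.5-leaf stage. Greenhouse 25–30 °C, 3 wk. Score 0–5 (5 = ≥90% kill, 0 = ≤5%).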

The next data set relates to Leptochloa chinensis. In words: Test Example 3: herbicidal effect by foliage application, Wagner pot (symbol D). The conditions noted are these: application herbicide amount 320 g/ha; for D (Leptochloa chinensis) herbicidal effect grade: Table 24. The method, boiled down: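 Weeds and rice were sown in alluvial soil under 0.1–0.5 cm of standing water and grown for 14 days in a 25–30 °C greenhouse. An emulsion of the compound, diluted in water to a set dose, was sprayed evenly onto the foliage. Effect was scored against fixed criteria 3 weeks after treatment.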

The test system of another data set is Amaranthus retroflexus. In words: Test Example 4: herbicidal effect by soil treatment (symbol N). Put shortly: as §2
In data set [1] the test system is directly sowed rice plant. In words: Test Example 3: effect on crop by foliage application, Wagner pot (symbol b). The following applies: application herbicide amount 320 g/ha; for b (directly sowed rice plant) effect on crop grade: Table 24. The method, boiled down:
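Plants are raised from seed in flooded paddy conditions: water stands 0.1–0.5 cm over alluvial soil, and the pot is kept in a greenhouse at 25–30 °C. Species sown are barnyardgrass (E. crus-galli var. crus-galli), Leptochloa chinensis, Cyperus difformis and rice.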

For another data set, the system named is Galium spurium. In words: Test Example 5: herbicidal effect by foliage application, plastic box (symbol Q). The conditions noted are these: 320 g/ha, 3 weeks after application. The method, boiled down:
as §3

The subject of the next data set is Digitaria ciliaris. In words: Test Example 4: herbicidal effect by soil treatment (symbol F). The method, boiled down:
as §2

The mark [2] stands for this setting: application herbicide amount 320 g/ha.

`CON=C(C)CON=C(C)CC1CC(O)=C(c2c(C)cc(C)cc2C)C1=O` (centres unmarked) [1-105]: the “e: wheat, effect on crop (criteria 0-5)” value with wheat is given as 5 (Herbicidal ratio of 90% or more (almost completely withered)). Besides, in the data set on Abutilon theophrasti (320 g/ha), the “M: Abutilon theophrasti, herbicidal effect grade” value was 1 (Herbicidal ratio of 5% or higher and lower than 20%). For the same compound, the “L: Apera spica-venti, herbicidal effect (criteria 0-5)” value in the data set with Apera spica-venti is recorded as 5 (Herbicidal ratio of 90% or more (almost completely withered)). For the same compound, the “f: beet, effect on crop (criteria 0-5)” value in the data set with beet was 0 (Herbicidal ratio of 5% or lower (almost no effect)). Besides, in the data set with rapeseed (320 g/ha), the “g: rapeseed, effect grade on crop” value is 3 (Herbicidal ratio of 40% or higher and lower than 70%). In the data set on corn, the “c: corn, effect on crop (criteria 0-5)” value is 4 (Herbicidal ratio of 70% or higher and lower than 90%). In addition, in the data set on transplanted rice plant, the “Effect grade on crop, a: transplanted rice plant” value is listed as 5 (Herbicidal ratio of 90% or more (almost completely withered)). In the data set on Monochoria vaginalis, the “Herbicidal effect grade, C: Monochoria vaginalis” value is 4 (Herbicidal ratio of 70% or higher and lower than 90%). In addition, in the data set on Leptochloa chinensis, the “herbicidal effect on D (Leptochloa chinensis), grade 0-5” value is on record as 5 (Herbicidal ratio of 90% or more (almost completely withered)). In the data set with Amaranthus retroflexus (320 g/ha), the “N: Amaranthus retroflexus, herbicidal effect grade” value was 4 (Herbicidal ratio of 70% or higher and lower than 90%). In addition, the “effect on crop b (directly sowed rice plant), grade 0-5” value in [1] is recorded as 5 (Herbicidal ratio of 90% or more (almost completely withered)). Moreover, the “Q: Galium spurium, herbicidal effect (criteria 0-5)” value in the data set with Galium spurium was 2 (Herbicidal ratio of 20% or higher and lower than 40%). Also, the “F: Digitaria ciliaris, herbicidal effect grade” value with Digitaria ciliaris (320 g/ha) is on record as 5 (Herbicidal ratio of 90% or more (almost completely withered)).
With `COCCON=C(C)CC1CC(O)=C(c2c(C)cc(-n3cc(Cl)cn3)cc2C)C1=O` (centres unmarked) [9-016], the “e: wheat, effect on crop grade” value in the data set on wheat was 3 (Herbicidal ratio of 40% or higher and lower than 70%). Also, the “Herbicidal effect grade, M: Abutilon theophrasti” value in the data set on Abutilon theophrasti (setting [2]) is 0 (Herbicidal ratio of 5% or lower (almost no effect)). Besides, in the data set on Apera spica-venti, the “L: Apera spica-venti, herbicidal effect grade” value is recorded as 5 (Herbicidal ratio of 90% or more (almost completely withered)). Besides, in the data set with beet, the “f: beet, effect on crop grade” value was 0 (Herbicidal ratio of 5% or lower (almost no effect)). Also, the “Effect on crop grade, g: rapeseed” value with rapeseed (setting [2]) is reported as 0 (Herbicidal ratio of 5% or lower (almost no effect)). The “c: corn, effect on crop grade” value in the data set on corn is reported as 5 (Herbicidal ratio of 90% or more (almost completely withered)). In the data set on transplanted rice plant, the “a (transplanted rice plant) effect on crop grade” value is given as 5 (Herbicidal ratio of 90% or more (almost completely withered)). In addition, the “C (Monochoria vaginalis) herbicidal effect grade” value in the data set on Monochoria vaginalis was 2 (Herbicidal ratio of 20% or higher and lower than 40%). The “D (Leptochloa chinensis) herbicidal effect grade” value in the data set on Leptochloa chinensis is given as 5 (Herbicidal ratio of 90% or more (almost completely withered)). Further, in the data set on Amaranthus retroflexus (setting [2]), the “Herbicidal effect grade, N: Amaranthus retroflexus” value was 0 (Herbicidal ratio of 5% or lower (almost no effect)). Also, the “b (directly sowed rice plant) effect on crop grade” value in data set [1] is 5 (Herbicidal ratio of 90% or more (almost completely withered)). Besides, in the data set with Galium spurium, the “Q: Galium spurium, herbicidal effect grade” value was 2 (Herbicidal ratio of 20% or higher and lower than 40%). In the data set with Digitaria ciliaris (setting [2]), the “Herbicidal effect grade, F: Digitaria ciliaris” value is reported as 5 (Herbicidal ratio of 90% or more (almost completely withered)).
Regarding `CON=C(C)CC1CC(OS(C)(=O)=O)=C(c2c(C)cc(C)cc2C)C1=O` (centres unmarked) [1-006], the “e: wheat, effect on crop grade” value in the data set with wheat is 3 (Herbicidal ratio of 40% or higher and lower than 70%). Moreover, the “M (Abutilon theophrasti) herbicidal effect grade” value in the data set with Abutilon theophrasti (setting [2]) was 4 (Herbicidal ratio of 70% or higher and lower than 90%). In addition, the “L: Apera spica-venti, herbicidal effect grade” value in the data set on Apera spica-venti is reported as 5 (Herbicidal ratio of 90% or more (almost completely withered)). For the same compound, the “f: beet, effect on crop grade” value with beet was 0 (Herbicidal ratio of 5% or lower (almost no effect)). In addition, the “g (rapeseed) effect on crop grade” value in the data set on rapeseed (setting [2]) is 0 (Herbicidal ratio of 5% or lower (almost no effect)). Further, in the data set with corn, the “c: corn, effect on crop grade” value is 3 (Herbicidal ratio of 40% or higher and lower than 70%). Besides, the “Effect grade on crop, a: transplanted rice plant” value with transplanted rice plant was 4 (Herbicidal ratio of 70% or higher and lower than 90%). For the same compound, in the data set on Monochoria vaginalis, the “Herbicidal effect grade, C: Monochoria vaginalis” value was 3 (Herbicidal ratio of 40% or higher and lower than 70%). In the data set with Leptochloa chinensis, the “herbicidal effect on D (Leptochloa chinensis), grade 0-5” value was 5 (Herbicidal ratio of 90% or more (almost completely withered)). The “N (Amaranthus retroflexus) herbicidal effect grade” value in the data set with Amaranthus retroflexus (setting [2]) is 4 (Herbicidal ratio of 70% or higher and lower than 90%). Moreover, the “effect on crop b (directly sowed rice plant), grade 0-5” value in data set [1] is reported as 5 (Herbicidal ratio of 90% or more (almost completely withered)). Further, the “Q: Galium spurium, herbicidal effect grade” value with Galium spurium was 0 (Herbicidal ratio of 5% or lower (almost no effect)). Further, in the data set with Digitaria ciliaris (setting [2]), the “F (Digitaria ciliaris) herbicidal effect grade” value is 5 (Herbicidal ratio of 90% or more (almost completely withered)).
As for `CC(CC1CC(OC(=O)N2CCOCC2)=C(c2c(C)cc(-c3ccc(Cl)cc3)cc2C)C1=O)=NOCC(F)(F)F` (mixture of isomers) [9-025], in the data set with wheat, the “e: wheat, effect on crop grade” value was 0 (Herbicidal ratio of 5% or lower (almost no effect)). Also, the “Herbicidal effect grade, M: Abutilon theophrasti” value in the data set with Abutilon theophrasti (setting [2]) is given as 0 (Herbicidal ratio of 5% or lower (almost no effect)). The “L: Apera spica-venti, herbicidal effect grade” value in the data set on Apera spica-venti was 0 (Herbicidal ratio of 5% or lower (almost no effect)). Also, the “f: beet, effect on crop grade” value in the data set on beet is on record as 0 (Herbicidal ratio of 5% or lower (almost no effect)). The “Effect on crop grade, g: rapeseed” value with rapeseed (setting [2]) was 0 (Herbicidal ratio of 5% or lower (almost no effect)). For the same compound, the “c: corn, effect on crop grade” value in the data set on corn is given as 5 (Herbicidal ratio of 90% or more (almost completely withered)). In addition, the “a (transplanted rice plant) effect on crop grade” value in the data set on transplanted rice plant was 0 (Herbicidal ratio of 5% or lower (almost no effect)). Besides, the “C (Monochoria vaginalis) herbicidal effect grade” value with Monochoria vaginalis is 1 (Herbicidal ratio of 5% or higher and lower than 20%). The “D (Leptochloa chinensis) herbicidal effect grade” value in the data set on Leptochloa chinensis is 5 (Herbicidal ratio of 90% or more (almost completely withered)). Further, in the data set with Amaranthus retroflexus (setting [2]), the “Herbicidal effect grade, N: Amaranthus retroflexus” value was 0 (Herbicidal ratio of 5% or lower (almost no effect)). Also, the “b (directly sowed rice plant) effect on crop grade” value in data set [1] is 2 (Herbicidal ratio of 20% or higher and lower than 40%). The “Q: Galium spurium, herbicidal effect grade” value in the data set on Galium spurium is 0 (Herbicidal ratio of 5% or lower (almost no effect)). The “Herbicidal effect grade, F: Digitaria ciliaris” value in the data set on Digitaria ciliaris (setting [2]) was 2 (Herbicidal ratio of 20% or higher and lower than 40%).
Turning to `CCC(CC1CC(O)=C(c2c(C)cc(C)cc2OC)C1=O)=NOC` (mixture of isomers) [13-003], the “e: wheat, effect on crop grade” value with wheat is recorded as 5 (Herbicidal ratio of 90% or more (almost completely withered)). Also, in the data set on Abutilon theophrasti (setting [2]), the “M: Abutilon theophrasti, herbicidal effect grade” value is 4 (Herbicidal ratio of 70% or higher and lower than 90%). In addition, in the data set with Apera spica-venti, the “L: Apera spica-venti, herbicidal effect grade” value is 5 (Herbicidal ratio of 90% or more (almost completely withered)). In addition, the “f: beet, effect on crop grade” value in the data set with beet was 0 (Herbicidal ratio of 5% or lower (almost no effect)). Besides, in the data set with rapeseed (setting [2]), the “g: rapeseed, effect on crop grade” value was 3 (Herbicidal ratio of 40% or higher and lower than 70%). For the same compound, the “c: corn, effect on crop grade” value with corn is listed as 5 (Herbicidal ratio of 90% or more (almost completely withered)). The “a (transplanted rice plant) effect on crop grade” value in the data set on transplanted rice plant was 5 (Herbicidal ratio of 90% or more (almost completely withered)). Besides, in the data set on Monochoria vaginalis, the “C (Monochoria vaginalis) herbicidal effect grade” value was 0 (Herbicidal ratio of 5% or lower (almost no effect)). In the data set on Leptochloa chinensis, the “D (Leptochloa chinensis) herbicidal effect grade” value is reported as 5 (Herbicidal ratio of 90% or more (almost completely withered)). The “N: Amaranthus retroflexus, herbicidal effect grade” value with Amaranthus retroflexus (setting [2]) is 0 (Herbicidal ratio of 5% or lower (almost no effect)). The “b (directly sowed rice plant) effect on crop grade” value in data set [1] is on record as 5 (Herbicidal ratio of 90% or more (almost completely withered)). Also, the “Q: Galium spurium, herbicidal effect grade” value in the data set with Galium spurium was 3 (Herbicidal ratio of 40% or higher and lower than 70%). The “F: Digitaria ciliaris, herbicidal effect grade” value in the data set with Digitaria ciliaris (setting [2]) is reported as 5 (Herbicidal ratio of 90% or more (almost completely withered)).
